“Also recorded” adds a separate entry of the source.
How the values were obtained:
SK-MEL-5 = test: NCI60 screening, Melanoma, SK-MEL-5; assay type: cell-based, human
IGROV1 = test: NCI60 screening, Ovarian Cancer, IGROV1; assay type: cell-based, human
SK-MEL-28 = test: NCI60 screening, Melanoma, SK-MEL-28; assay type: cell-based, human
A498 = test: NCI60 screening, Renal Cancer, A498; assay type: cell-based, human
SF-539 = test: NCI60 screening, CNS Cancer, SF-539; assay type: cell-based, human
SN12C = test: NCI60 screening, Renal Cancer, SN12C; assay type: cell-based, human
DU-145 = test: NCI60 screening, Prostate Cancer, DU-145; assay type: cell-based, human
[1] = Body weight of PC-3 xenograft mice receiving the experimental diet; assay type: in vivo, nude mice; settings: 450 ppm in diet, compared to controls
Description: Given the increased potency of OSU-A9M compared to the other lead derivatives, an experimental diet was formulated. An AIN-76A rodent diet (American Institute of Nutrition; including primarily casein, sucrose, and corn starch) containing 450 ppm OSU-A9M was made to deliver approximately 50 mg/kg of drug per day to each mouse estimated by food consumption and body weight measurements.

[2] = tested on: PC-3 prostate cancer cells; test: MTT assay of PC-3 cell viability; assay type: cell-based; settings: MTT assay, 24, 48 and 72 h; comparison in words
Description: Each data point represents means±S.D. (n=6). The activity of OSU-A9M versus its parent compound A9 ([1-(3′-nitro-4′-chlorobenzenesulfonyl)-1H-indol-3-yl]-methanol) and its fluorinated counterpart OSU-A9F ([1-(4-Chloro-3-nitro-benzenesulfonyl)-5-fluoro-1H-indol-3-yl])-methanol in suppressing the cell viability of PC-3 prostate cancer cells was compared using the MTT [3-(4,5-dimethylthiazol-2-yl)-2,5-diphenyl-2H-tetrazolium bromide] assay. Cancer cells and PrECs were grown in 5% FBS-supplemented RPMI 1640 medium or 5% FBS-supplemented prostate epithelial growth medium, respectively, in 96-well, flat-bottomed plates for 24 h, and then exposed to various concentrations of test agents in the same medium for the indicated time intervals. Controls received DMSO vehicle at a concentration equal to that in drug-treated cells. At the end of the treatment, the medium was removed, replaced by 200 μL of 0.5 mg/mL of MTT in the same medium, and cells were incubated in the CO2 incubator at 37° C. for 2 h. Supernatants were removed from the wells, and the reduced MTT dye was solubilized in 200 μL/well DMSO. Absorbance at 570 nm was determined on a plate reader.

MDA-MB-468 = test: NCI60 screening, Breast Cancer, MDA-MB-468; assay type: cell-based, human
NCl/ADR-RES = test: NCI60 screening, Ovarian Cancer, NCl/ADR-RES; assay type: cell-based, human
OVCAR-3 = test: NCI60 screening, Ovarian Cancer, OVCAR-3; assay type: cell-based, human
SK-MEL-2 = test: NCI60 screening, Melanoma, SK-MEL-2; assay type: cell-based, human
HOP-62 = test: NCI60 screening, Non-Small Cell Lung Cancer, HOP-62; assay type: cell-based, human
MOLT-4 = test: NCI60 screening, Leukemia, MOLT-4; assay type: cell-based, human
[3] = Homo sapiens, read-out: LC50 (the source's name)

Compound: Cc1ccc2c(c1)c(CO)cn2S(=O)(=O)c1ccc(Cl)c([N+](=O)[O-])c1 [OSU-A9M, [1-(4-chloro-3-nitro-benzenesulfonyl)-5-methyl-1H-indol-3-yl]-methanol]
- TGI (SK-MEL-5): 2.83E−6
- GI50 (SK-MEL-5; Homo sapiens): 1500 nM
- CC50 (SK-MEL-5; [3]): 5320 nM
- Percent Growth (SK-MEL-5; Log10 Concentration −4.0): −100%
- Percent Growth (SK-MEL-5; Log10 Concentration −5.0): −100%
- Percent Growth (SK-MEL-5; Log10 Concentration −6.0): 82%
- Percent Growth (SK-MEL-5; Log10 Concentration −7.0): 92%
- Percent Growth (SK-MEL-5; Log10 Concentration −8.0): 96%
- TGI (IGROV1): 1.23E−6
- GI50 (IGROV1; Homo sapiens, IGROV-1): 349 nM
- CC50 (IGROV1; Homo sapiens, IGROV-1, read-out: LC50 (the source's name)): 3500 nM
- Percent Growth (IGROV1; Log10 Concentration −4.0): −100%
- Percent Growth (IGROV1; Log10 Concentration −5.0): −100%
- Percent Growth (IGROV1; Log10 Concentration −6.0): 10%
- Percent Growth (IGROV1; Log10 Concentration −7.0): 98%
- Percent Growth (IGROV1; Log10 Concentration −8.0): 86%
- TGI (SK-MEL-28): 2.91E−6
- GI50 (SK-MEL-28; Homo sapiens): 1570 nM
- LC50 (SK-MEL-28; Homo sapiens): 5400 nM
- Percent Growth (SK-MEL-28; Log10 Concentration −4.0): −100%
- Percent Growth (SK-MEL-28; Log10 Concentration −5.0): −100%
- Percent Growth (SK-MEL-28; Log10 Concentration −6.0): 87%
- Percent Growth (SK-MEL-28; Log10 Concentration −7.0): 89%
- Percent Growth (SK-MEL-28; Log10 Concentration −8.0): 93%
- TGI (A498): 2.79E−6
- GI50 (A498; Homo sapiens): 1330 nM
- CC50 (A498; [3]): 5870 nM
- Percent Growth (A498; Log10 Concentration −4.0): −100%
- Percent Growth (A498; Log10 Concentration −5.0): −86%
- Percent Growth (A498; Log10 Concentration −6.0): 69%
- Percent Growth (A498; Log10 Concentration −7.0): 62%
- Percent Growth (A498; Log10 Concentration −8.0): 75%
- TGI (SF-539): 2.94E−6
- GI50 (SF-539; Homo sapiens): 1600 nM
- CC50 (SF-539; [3]): 5420 nM
- Percent Growth (SF-539; Log10 Concentration −4.0): −100%
- Percent Growth (SF-539; Log10 Concentration −5.0): −100%
- Percent Growth (SF-539; Log10 Concentration −6.0): 88%
- Percent Growth (SF-539; Log10 Concentration −7.0): 94%
- Percent Growth (SF-539; Log10 Concentration −8.0): 93%
- TGI (SN12C): 2.99E−6
- GI50 (SN12C; Homo sapiens): 1410 nM
- CC50 (SN12C; [3]): 6310 nM
- Percent Growth (SN12C; Log10 Concentration −4.0): −88%
- Percent Growth (SN12C; Log10 Concentration −5.0): −81%
- Percent Growth (SN12C; Log10 Concentration −6.0): 73%
- Percent Growth (SN12C; Log10 Concentration −7.0): 92%
- Percent Growth (SN12C; Log10 Concentration −8.0): 68%
- TGI (DU-145): 3.04E−6
- GI50 (DU-145; Homo sapiens): 1670 nM
- CC50 (DU-145; [3]): 5510 nM
- Percent Growth (DU-145; Log10 Concentration −4.0): −100%
- Percent Growth (DU-145; Log10 Concentration −5.0): −100%
- Percent Growth (DU-145; Log10 Concentration −6.0): 93%
- Percent Growth (DU-145; Log10 Concentration −7.0): 95%
- Percent Growth (DU-145; Log10 Concentration −8.0): 103%
- Body weights of mice receiving the experimental diet [1]: unchanged compared to controls
- In vitro potency against the viability of PC-3 cells [2]: greater than or similar to that of OSU-A9; also recorded: greater potency than OSU-A9 and OSU-A9F
- TGI (MDA-MB-468): 2.18E−6
- GI50 (MDA-MB-468; Homo sapiens): 979 nM
- CC50 (MDA-MB-468; [3]): 4780 nM
- Percent Growth (MDA-MB-468; Log10 Concentration −4.0): −95%
- Percent Growth (MDA-MB-468; Log10 Concentration −5.0): −97%
- Percent Growth (MDA-MB-468; Log10 Concentration −6.0): 50%
- Percent Growth (MDA-MB-468; Log10 Concentration −7.0): 86%
- Percent Growth (MDA-MB-468; Log10 Concentration −8.0): 90%
- TGI (NCl/ADR-RES): 3.32E−6
- GI50 (NCl/ADR-RES; Homo sapiens): 1810 nM
- CC50 (NCl/ADR-RES; [3]): 6090 nM
- Percent Growth (NCl/ADR-RES; Log10 Concentration −4.0): −93%
- Percent Growth (NCl/ADR-RES; Log10 Concentration −5.0): −91%
- Percent Growth (NCl/ADR-RES; Log10 Concentration −6.0): 99%
- Percent Growth (NCl/ADR-RES; Log10 Concentration −7.0): 102%
- Percent Growth (NCl/ADR-RES; Log10 Concentration −8.0): 96%
- TGI (OVCAR-3): 4.90E−7
- GI50 (OVCAR-3; Homo sapiens): 225 nM
- CC50 (OVCAR-3; [3]): 1190 nM
- Percent Growth (OVCAR-3; Log10 Concentration −4.0): −100%
- Percent Growth (OVCAR-3; Log10 Concentration −5.0): −100%
- Percent Growth (OVCAR-3; Log10 Concentration −6.0): −46%
- Percent Growth (OVCAR-3; Log10 Concentration −7.0): 102%
- Percent Growth (OVCAR-3; Log10 Concentration −8.0): 100%
- TGI (SK-MEL-2): 3.04E−6
- GI50 (SK-MEL-2; Homo sapiens): 1600 nM
- CC50 (SK-MEL-2; [3]): 5780 nM
- Percent Growth (SK-MEL-2; Log10 Concentration −4.0): −93%
- Percent Growth (SK-MEL-2; Log10 Concentration −5.0): −93%
- Percent Growth (SK-MEL-2; Log10 Concentration −6.0): 86%
- Percent Growth (SK-MEL-2; Log10 Concentration −7.0): 96%
- Percent Growth (SK-MEL-2; Log10 Concentration −8.0): 102%
- TGI (HOP-62): 3.11E−6
- GI50 (HOP-62; Homo sapiens): 1740 nM
- CC50 (HOP-62; [3]): 5580 nM
- Percent Growth (HOP-62; Log10 Concentration −4.0): −99%
- Percent Growth (HOP-62; Log10 Concentration −5.0): −100%
- Percent Growth (HOP-62; Log10 Concentration −6.0): 97%
- Percent Growth (HOP-62; Log10 Concentration −7.0): 95%
- Percent Growth (HOP-62; Log10 Concentration −8.0): 98%
- TGI (MOLT-4): 1.96E−6
- GI50 (MOLT-4; Homo sapiens): 334 nM
- LC50 (MOLT-4; Homo sapiens): 18300 nM
- Percent Growth (MOLT-4; Log10 Concentration −4.0): −64%
- Percent Growth (MOLT-4; Log10 Concentration −5.0): −45%
- Percent Growth (MOLT-4; Log10 Concentration −6.0): 19%
- Percent Growth (MOLT-4; Log10 Concentration −7.0): 85%
- Percent Growth (MOLT-4; Log10 Concentration −8.0): 92%

Reference: patent publication US8680133B2, “Alkyl indole-3-carbinol-derived antitumor agents” (The Ohio State University Research Foundation, priority 2009, dated 2014)
